Data published in patent US8940857B2, “Methods and compositions for enhancing delivery of double-stranded RNA or a double-stranded hybrid nucleic acid to regulate gene expression in mammalian cells” (Marina Biotech, Inc., priority 2004, dated 2015).
Oligonucleotides are written 5' to 3', each unit as a sugar letter and its base; * is a phosphorothioate linkage, no mark a phosphodiester; rarer units and linkages stand in square brackets, end groups in braces. Plain capitals give the bases only. No end group written: not given here. maleimide = maleimide group (amino-terminal modification); d = 2'-deoxy (DNA); r = 2'-OH (RNA)

Each substance was assayed on beta-galactosidase mRNA (assay: Transfection of 9L/LacZ cells with siRNA and lipofectamine, beta-Gal/BCA assay (silencing of beta-galactosidase)). Settings: 9L/beta-gal cells, transfected with lipofectamine; control = cells transfected by lipofectamine alone; lower = greater efficacy.
Format: cell-based
Description: Transfection of 9L/LacZ Cells:
• a) Take saturated 9L/LacZ culture from T75 flask, detach cell and dilute into 10 ml with complete medium (DMEM, 1× PS, 1× Na Pyruvate, 1× NEAA). • b) Further dilute the cell to 1:15, and seed 100 μl into each 96 well, which should give 50% confluence cell the next day for transfection. […] Flow Cytometry Measurement of FITC/FAM Conjugated siRNA • a) After transfection, incubate cell for at least 3 hours. • b) Wash with 200 μl PBS. • c) Detach cell with 15 μl TE, incubate at 37° C. • d) Re-suspend five wells with 30 μl FACS solution (PBS with 0.5% BSA, and 0.1% sodium Azide) • e) Combine all five wells into a tube. • f) Add PI 5 μl into each tube. • g) Analyze the cells with fluorescence activated cell sorting (FCAS) with BD FACscan instrument according to manufacture's instruction.
The transfection was performed with either regular siRNA or cholesterol-conjugated siRNA with lipofectamine (Invitrogen) on 9L/beta-gal cells. The siRNA was designed to specifically knock down beta-galactosidase mRNA and activities are expressed as percentage of beta-gal activities from control (transfected cells by lipofectamine alone). […]

Row | Substance | Activity (% of control): beta-galactosidase activity remaining after the transfection
1 | AA: siRNA construct with no cholesterol conjugated to any of the ends of the sense or antisense RNA strands (SEQ ID NO: 14/15) (sense rCrUrArCrArCrArArArUrCrArGrCrGrArUrUrUdTdT; antisense rArArArUrCrGrCrUrGrArUrUrUrGrUrGrUrArGdTdT) | 23.12 % of control

These substances were tested on epithelial monolayers (assay: Peptide-mediated changes in trans-epithelial electrical resistance (TEER), permeation across epithelial monolayers). Settings: measured by peptide-mediated changes in TEER.
Format: cell-based

Row | Substance | Effects (activity to enhance permeation across epithelial monolayers)
2 | BrAc-GWTLNSAGYLLGKINLKALAALAKKILamide (SEQ ID NO: 3) [PN0064] | +
3 | BrAc-KLALKLALKALKAALKLA-amide (SEQ ID NO: 4) (HELM PEPTIDE1{[O=C(CBr)[*:2]].K.L.A.L.K.L.A.L.K.A.L.K.A.A.L.K.L.A.[am]}$$$$V2.0; SMILES CC(C)C[C@H](NC(=O)[C@H](C)NC(=O)[C@H](CCCCN)NC(=O)[C@H](CC(C)C)NC(=O)[C@H](C)NC(=O)[C@H](CC(C)C)NC(=O)[C@H](CCCCN)NC(=O)[C@H](CC(C)C)NC(=O)[C@H](C)NC(=O)[C@H](CC(C)C)NC(=O)[C@H](CCCCN)NC(=O)CBr)C(=O)N[C@@H](CCCCN)C(=O)N[C@@H](C)C(=O)N[C@@H](C)C(=O)N[C@@H](CC(C)C)C(=O)N[C@@H](CCCCN)C(=O)N[C@@H](CC(C)C)C(=O)N[C@@H](C)C(N)=O) [PN0068] | +
4 | GRKKRRQRRRPQ-amide (SEQ ID NO: 5) (GRKKRRQRRRPQ-NH2) [PN0069] | −
5 | Maleimide-GLGSLLKKAGKKLKQPKSKRKV-amide (SEQ ID NO: 12) (maleimide-GLGSLLKKAGKKLKQPKSKRKV-NH2) [PN283] | +
6 | NH2-AAVALLPAVLLALLAPRKKRRQRRRPPQ-amide (SEQ ID NO: 8) (H-AAVALLPAVLLALLAPRKKRRQRRRPPQ-NH2) [PN027] | +
7 | NH2-KETWWETWWTEWSQPGRKKRRQRRRPPQ-amide (SEQ ID NO: 11) (H-KETWWETWWTEWSQPGRKKRRQRRRPPQ-NH2) [PN183] | +
8 | NH2-LLETLLKPFQCRICMRNFSTRQARRNHRRRHRR-amide (SEQ ID NO: 9) (H-LLETLLKPFQCRICMRNFSTRQARRNHRRRHRR-NH2; cysteine pairing not given here) [PN202] | +
9 | NH2-RRRQRRKRGGDIMGEWGNEIFGAIAGFLG-amide (SEQ ID NO: 10) (H-RRRQRRKRGGDIMGEWGNEIFGAIAGFLG-NH2; listed as Influenza virus) [PN250] | +
10 | RKKRRQRRRPPQCAAVALLPAVLLALLAP-amide (SEQ ID NO: 1) (RKKRRQRRRPPQCAAVALLPAVLLALLAP-NH2) [PN0028] | +
11 | RQIKIWFQNRRMKWKK-amide (SEQ ID NO: 2) (RQIKIWFQNRRMKWKK-NH2) [PN0058] | +
12 | RRRRRRR (SEQ ID NO: 6) [PN0071] | −
